How the values were obtained:
A549 cells = assay: Clonogenic survival assay, A549 cells (Example 1); format: cell-based; conditions: Homo sapiens, read-out: IC50 values for pemetrexed
Procedure: Tumor cells (500-2000/dish) were plated and treated with pemetrexed (0-400 nM), 5-fluorouracil (0-20 μM), temozolomide (0-1500 μM), or cisplatin (0-40 μM). After 7 days, surviving colonies were stained with methylene blue for 30 min at room temperature and the colonies containing more than 50 cells were counted to generate survival curves.

H1975 67 shUNG cells = assay: Colony survival assay, H1975 67 shUNG cells; format: cell-based; conditions: Homo sapiens, NCI-H1975, read-out: pemetrexed IC50
Procedure: (§1) For cells in suspension, colony survival was determined by crystal violet staining of colonies formed after 10-day exposure of 5×10^3 cells to pemetrexed in soft agar. For adherent cells, colony survival was determined by methylene blue staining of colonies formed after 10-day exposure of 100 cells to pemetrexed in 6-well culture dishes. Only colonies containing ≥50 cells were counted. Data points represent percent of colonies relative to untreated control averaged over 3 experiments.
UNG directed shRNA and siRNA plasmids were purchased from Origene. Transfection was carried out according to manufacturer specifications. Stably transfected clones (shRNA) were selected with puromycin with subsequent expansion of a well-isolated colony of cells.

[1] = system: AP sites in DNA of UDG+/+ cells; assay: AP site assay (ARP), UDG+/+ cells; format: cell-based, human; conditions: pemetrexed 0-400 nM, 24 hrs
Procedure: (§2) The number of AP sites was measured using ARP (aldehyde reactive probe) reagent. The assay was performed as previously described. Briefly, cells (2×10^6) were collected after drug treatment and DNA was extracted. DNA (10 μg) was incubated with 15 μl of 1 mM ARP (Dojindo Laboratories, Kumamoto, Japan), and then precipitated and washed with ice-cold ethanol. The ARP-labeled DNA was then heat-denatured at 100° C. for 5 min, quickly chilled on ice and mixed with an equal volume of 2 M ammonium acetate. The DNA was then immobilized on a BA-S 85 nitrocellulose membrane (Schleicher and Schuell, Dassel, Germany) using a minifold II vacuum filter device (Schleicher and Schuell, Dassel, Germany). The membrane was incubated with 0.25% BSA-PBS containing streptavidin-conjugated horseradish peroxidase (BioGenex, SanRamon, Calif.) at room temperature for 40 min with gentle shaking. ARP-labeled AP sites were visualized by chemiluminescence (Amersham Corp, Piscataway, N.J.) followed by quantitative densitometry using NIH Image J software.

H1299/PR-1 cells = assay: Colony survival assay, H1299/PR-1 pemetrexed-resistant subline; format: cell-based, human; conditions: PR-1 vs H1299 parental, colony survival
Procedure: as §1
(§3) H1299 cells were exposed to step-wise increasing concentrations of pemetrexed over a period of 4 months. UNG expression was monitored in the bulk population at 2, 8, 12 and 16 weeks prior to administration of the induction dosage and at 24 weeks in a population of bulk chronically exposed cells that had been without pemetrexed for 8 weeks. H1299 cells capable of growth in 50 nM pemetrexed selection pressure were subcloned by limiting dilution in 96 well plates. Independent sublines were designated H1299/PR-1 and H1299/PR-2.

A549 parental cells = assay: Colony survival assay, A549 parental cells (Example 2); format: cell-based; conditions: Homo sapiens, read-out: pemetrexed IC50
Procedure: as §1

[2] = system: uracil in DNA of UDG−/− cells; assay: Uracil in DNA by HPLC/MS/MS, UDG−/− cells; format: cell-based, human
Procedure: (§4) UDG^−/− and UDG^+/+ cells were exposed to pemetrexed (10 μM) or 5-fluorouracil (10 μM) for 6, 24, 48 and 72 hrs. At indicated time points, cells were harvested and genomic DNA was extracted by phenol/chloroform. Forty μg of DNA were incubated with 10 U of purified UDG (New England Biolabs) in 60 μL of reaction buffer at 37° C. for 2 hrs. The reaction products were dried at 35° C. in a Turbovap under a stream of nitrogen and reconstituted in 150 μL 90% acetonitrile. The analyte was retained by an Atlantis Hilis Silica analytical column (2.1×100 mm, 3.5 μM) and eluted isocratically by a mixture of 90% acetonitrile and 10% 2.0 mM ammonium formate at a flow rate of 0.2 ml/min. The detection was done by an API 3200 MS/MS mass spectrometer.

[3] = system: uracil in DNA of UDG+/+ cells; assay: Uracil in DNA by HPLC/MS/MS, UDG+/+ cells; format: cell-based, human; conditions: pemetrexed 10 μM, 6-72 hr
Procedure: as §4

[4] = system: AP sites in DNA of UDG−/− cells; assay: AP site assay (ARP), UDG−/− cells; format: cell-based, human; conditions: pemetrexed 0-400 nM, 24 hrs
Procedure: as §2

H1299/PR-2 cells = assay: Colony survival assay, H1299/PR-2 pemetrexed-resistant subline; format: cell-based, human; conditions: PR-2 vs H1299 parental
Procedure: as §1, §3

H1975 shUNG cells = assay: PCNA dissociation by bi-parametric flow cytometry, H1975 shUNG cells; format: cell-based, human; conditions: 25 nM pemetrexed
Procedure: Propidium iodine (PI) staining of methanol fixed cells was for cell cycle determinations. Where indicated, FITC labeled PCNA antibody (PCNA-FITC, Abcam) was added for PCNA detection. Uni-parameter (PI-only) and dual-parameter (PI+PCNA-FITC) analysis was performed on a Coulter flow cytometer (EPICS-XL-MCL). Cell cycle histograms (PI) and PCNA dot plots (PCNA-FITC) were de-convoluted from ≥20,000 events using FlowJo software.
Prolonged S-phase arrest is known to result in DNA DSB formation due to the collapse of stalled replication forks. We evaluated the stability of the DNA replication fork in pemetrexed treated lung cancer cells with native and reduced levels of UNG protein. Nucleotide incorporation experiments using CldU and IdU indicate decreased postpemetrexed treatment nucleotide incorporation (data not shown). […] Using bi-parametric flow cytometry we measured the dissociation of the replication fork processivity factor, PCNA at the single cell level in H1975 cells expressing UNG directed shRNA. Similar assays have been utilized to detect replication fork disassembly following etoposide and hydroxyurea exposure. PCNA dissociation was determined by the percentage of cells in S phase having low PCNA (red box, FIG. 11d). […] As a complimentary experiment, we examined the expression of chromatin-bound PCNA after pemetrexed treatment by western blot of chromatin cellular extracts.

H460 xenografts = assay: H460 xenograft tumors in nude mice; format: in vivo; conditions: pemetrexed 150 mg/kg, MX 4 mg/kg, i.p. daily for 5 days
Procedure: H460 or A549 tumor cells (5×10^6) were injected into bilateral flanks of female athymic NCr (nu/nu) mice (6 weeks old). When the tumor volumes reached 100-150 mm3, mice were divided into control and treatment groups (6-9 mice/group). Nude mice carrying tumors were treated with pemetrexed (150 mg/kg) alone, MX (4 mg/kg) alone or the combination of the two agents, by daily intraperitonial injection (i.p.) for 5 consecutive days. Tumor measurements were taken every 2 days. Tumor responses were quantified by tumor volume.

## Nc1nc2[nH]cc(CCc3ccc(C(=O)N[C@@H](CCC(=O)O)C(=O)O)cc3)c2c(=O)[nH]1 [pemetrexed]
A549 cells
  IC50: 1200 nM
H1975 67 shUNG cells
  IC50: 146 nM
[1]
  AP sites in DNA: dose-dependent formation of AP sites
H1299/PR-1 cells
  relative resistance to pemetrexed compared to parental cells: 25 fold
A549 parental cells
  IC50: 416 nM
[2]; UDG−/− cells, drug 10 μM, 6-72 hr
  uracil detected in DNA: significant amount of uracil
[2]; UNG−/− human cancer cells exposed to pemetrexed
  uracil accumulation compared to UNG+/+ controls: up to 40 fold
[3]
  uracil detected in DNA: very low
[4]
  AP sites in DNA: lack of detectable AP sites
H1299/PR-2 cells
  relative resistance to pemetrexed compared to parental cells: 71 fold
H1975 shUNG cells; 6 hours
  cells in S phase having low PCNA: 3.88±0.93%
H1975 shUNG cells; 24 hours
  cells in S phase having low PCNA: 7.81±1.19%
H460 xenografts; H460 tumours
  antitumour activity: moderately sensitive
H460 xenografts; H460 xenografts at 15 days, PBS control 2100±106
  mean tumour volume: 1726±176 mm3
